From patent publication US5108747A, “Stable oxpenem-3-carboxylic acids as beta-lactamase inhibitors” (Bayer Aktiengesellschaft, priority 1988, dated 1992)
Entries after “also recorded” stand apart in the source; their conditions may differ. Structures can show the parent of a compound that is named as a salt. Where two headings read alike, the source gives them in different places.

How the values were obtained:
[1] = Hydrolysis half life at pH 7.4, 37° C. in aqueous phosphate buffer (UV spectroscopy; measure of the stability); assay type: physicochemical; conditions: for half-life: aqueous phosphate buffer
[2] = cited from earlier work
[3] = tested on: similar bacteria; conditions: 25 μg applied, J. Amer. Chem. Soc. 100, 8004 (1978); cited from earlier work
[4] = tested on: Staphylococcus aureus 25, 455/1; test: Decrease in the colony-forming capacity of Staphylococcus aureus 25, 455/1 in liquid nutrient medium; assay type: cell-based; conditions: control 3.5 × 10^8
Procedure: The colony-forming capacity of the bacteria was determined by plating out the bacteria on OXOID Iso Sensitest Agar. The two methods are international standard methods.
Synergistic effect of the combination. Decrease in the colony-forming capacity of Staphylococcus aureus 25, 455/1 by the action of mezlocillin in liquid nutrient medium.

[5] = tested on: Beta lactamase from Pseudomonas aeruginosa W; test: Degradation of mezlocillin by beta lactamase from Pseudomonas aeruginosa W and its prevention (agar hole test); assay type: biochemical
Procedure: (§1) Methods: the degradation of mezlocillin was determined with Streptococcus pyogenes W using the agar hole test, the sensitivity limits of which are below 1 mcg/ml.
(§2) Degradation of mezlocillin by beta lactamase and prevention of this degradation by oxapenem "O"

[6] = target: T1, Beta lactamase from E. coli 4787 TEM 1 (Escherichia coli, UniProt P62593); test: Degradation of mezlocillin by beta lactamase from E. coli 4787 TEM 1 and its prevention (agar hole test); assay type: biochemical; conditions: without oxapenem
T1 construct: preparation not described in the excerpts
Procedure: as §1, §2

[7] = target: cephalosporinase of E. cloacae 908 R (Enterobacter cloacae, UniProt P05364); test: in vitro inhibition of the cephalosporinase of E. cloacae 908 R; assay type: biochemical; conditions: relative to formiminothienamycin
From the text: A particular advantage of the oxapenem-3-carboxylic acids according to the invention is that in addition to the abovementioned properties of β-lactamase inhibition they are also themselves antibacterially active per se. It is true that substances having similar properties are known, for example formiminothienamycin (Lit.: Recent Advances in the Chemistry of β-Lactam Antibiotics, ed. by G.I. Gregory, The Royal Society, London, page 279 (1981)). However, the compounds according to the invention show a more rapid, more progressive and more irreversible inhibition of the lactamases with many clinically relevant bacteria. Thus, for example, the cephalosporinase of E. cloacae 908 R is inhibited 780 times more effectively in vitro by the 2-tert-butyl-6-hydroxymethyloxapenem-3-carboxylic acid K salt according to the invention than by formiminothienamycin.

[8] = tested on: Escherichia coli W 3110 R6K (TEM 1); test: agar diffusion test, Escherichia coli W 3110 R6K (TEM 1) (β-lactamase-forming); assay type: cell-based
[9] = tested on: Staph. aureus DSM 1104; test: agar diffusion test, Staph. aureus DSM 1104; assay type: cell-based, Staphylococcus aureus
Procedure: The compound IIIe designated as preferred in earlier patent applications (for example in EP 18,305) hydrolyzes in a few minutes and could never be transported efficiently by the blood vessel (pH 7.4, 37° C.) to the site of action undamaged. […] Using Staphylococcus aureus DSM 1104, only an inhibition halo of a few mm was determined in the agar diffusion test after applying 250 μg of IIIe.
(§3) Certain representatives are just as effective against gram-positive as against gram-negative bacteria and resistant bacteria.

[10] = tested on: Escherichia coli DSM 1103; test: agar diffusion test, Escherichia coli DSM 1103; assay type: cell-based
From the text: as §3

[11] = tested on: Staph. aureus 012484/77; test: agar diffusion test, Staph. aureus 012484/77 (penicillin- and cephalosporin-resistant); assay type: cell-based, Staphylococcus aureus
From the text: as §3

[12] = tested on: intact bacteria; conditions: antibacterial activity or synergism with ampicillin; Morin and Gorman, page 383; cited from earlier work
[13] = tested on: isolated bacterial enzymes (β-lactamases); conditions: cited from earlier work
[14] = tested on: bacteria; conditions: literature; cited from earlier work
[15] = tested on: bacteria; test: antibacterial activity in vitro; assay type: cell-based

T1 sequence (P62593 24-286 limits assumed): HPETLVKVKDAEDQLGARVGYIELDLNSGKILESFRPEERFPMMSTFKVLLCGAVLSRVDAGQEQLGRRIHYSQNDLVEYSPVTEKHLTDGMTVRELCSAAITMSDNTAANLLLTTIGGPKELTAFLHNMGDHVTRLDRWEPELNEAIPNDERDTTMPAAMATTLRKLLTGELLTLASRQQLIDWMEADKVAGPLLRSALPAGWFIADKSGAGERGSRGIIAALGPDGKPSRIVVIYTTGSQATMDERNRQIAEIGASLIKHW
cephalosporinase of E. cloacae 908 R, sequence (P05364 21-381): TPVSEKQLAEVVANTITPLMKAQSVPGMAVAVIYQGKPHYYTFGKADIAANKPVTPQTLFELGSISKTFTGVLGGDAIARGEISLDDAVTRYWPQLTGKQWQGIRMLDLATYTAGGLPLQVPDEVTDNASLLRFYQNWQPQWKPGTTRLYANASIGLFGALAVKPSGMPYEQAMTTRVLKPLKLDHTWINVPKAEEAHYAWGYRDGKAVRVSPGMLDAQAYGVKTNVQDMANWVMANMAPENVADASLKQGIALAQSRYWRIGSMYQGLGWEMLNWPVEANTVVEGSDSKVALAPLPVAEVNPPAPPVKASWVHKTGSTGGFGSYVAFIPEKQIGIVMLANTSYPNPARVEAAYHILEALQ

Compound: CC(C)(C)C1=C(C(=O)O)N2C(=O)C(C)(C)C2O1 (stereo not shown) [Compound IIIa, 2-tert-butyl-6.6-dimethyl-1-oxaoen-2-em-3-carboxylic acid]
- half-life [1]: 30 h

Compound: C[C@@H](O)[C@H]1C(=O)N2C(C(=O)O)=C(SCCN)C[C@H]12 [thienamycin]
- stability (in words) ([2]; literature): very sensitive to hydrolysis
- inhibition halo diameter [3]: 28-41 mm

Compound: CC1(C)S[C@@H]2[C@H](NC(=O)[C@H](NC(=O)N3CCN(S(C)(=O)=O)C3=O)c3ccccc3)C(=O)N2[C@H]1C(=O)O [mezlocillin]
- Number of colonies after an action time of 6 hrs ([4]; 2.0 mcg alone): 1.0 × 10^6 N/ml
- Mezlocillin remaining ([5]; reaction time 0 min, without oxapenem): 100 µg/mL
- Mezlocillin remaining ([5]; reaction time 30 min, without oxapenem): 35 µg/mL
- Mezlocillin remaining ([5]; reaction time 60 min, without oxapenem): 0 µg/mL
- Mezlocillin remaining ([6]; reaction time 0 min): 100 µg/mL
- Mezlocillin remaining ([6]; reaction time 30 min): 65 µg/mL
- Mezlocillin remaining ([6]; reaction time 60 min): 43 µg/mL
- Mezlocillin remaining ([6]; reaction time 240 min): 0 µg/mL

Compound: CC(C)(C)C1=C(C(=O)O)N2C(=O)C(CO)C2O1 (stereo not shown) [2-tert-butyl-6-hydroxymethyloxapenem-3-carboxylic acid K salt]
- inhibited times more effectively than by formiminothienamycin [7]: 780 times

Compound: CC1(C)S[C@@H]2[C@H](NC(=O)COc3ccccc3)C(=O)N2[C@H]1C(=O)O [Penicillin V]
- inhibition (in words) ([8]; 130 μg applied): not inhibited
- zone of inhibition at 130 µg/disc ([9]; Staphylococcus aureus, DSM1104, read-out: inhibition halo diameter): 42 mm
- zone of inhibition at 130 µg/disc ([10]; DSM1103, read-out: inhibition halo diameter): 13 mm
- inhibition (in words) ([11]; 130 μg applied): not inhibited

Compound: CC1=C(C(=O)O)N2C(=O)C(C)(C)C2O1 (stereo not shown) [Compound IIId]
- half-life [1]: 0.833 h

Compound: CCC1=C(C(=O)O)N2C(=O)CC2O1 (stereo not shown) [potassium salt of 2-ethyl-1-oxapenem-3-carboxylic acid]
- testability against intact bacteria (in words) [12]: too unstable for testing the antibacterial activity or the synergism with ampicillin against intact bacteria; also recorded: too unstable for testing synergism with ampicillin against intact bacteria

Compound: O=C(O)[C@H]1/C(=C/CO)O[C@@H]2CC(=O)N21 [clavulanic acid]
- Number of colonies after an action time of 6 hrs ([4]; 0.1 mcg alone): 1.0 × 10^8 N/ml
- Mezlocillin remaining ([5]; reaction time 0 min, with 1 mcg of inhibitor): 100 µg/mL
- Mezlocillin remaining ([5]; reaction time 0 min, with 10 mcg of inhibitor): 100 µg/mL
- Mezlocillin remaining ([5]; reaction time 30 min, with 1 mcg of inhibitor): 40 µg/mL
- Mezlocillin remaining ([5]; reaction time 30 min, with 10 mcg of inhibitor): 27 µg/mL
- Mezlocillin remaining ([5]; reaction time 60 min, with 1 mcg of inhibitor): 0 µg/mL
- Mezlocillin remaining ([5]; reaction time 60 min, with 10 mcg of inhibitor): 0 µg/mL

Compound: CCC1=C(C(=O)O)N2C(=O)C[C@H]2O1 [2-ethyl-1-oxapen-2-em-3-carboxylic acid]
- inhibition of isolated bacterial enzymes (β-lactamases) (in words) [13]: Only an inhibition of isolated bacterial enzymes (β-lactamases) was detectable
- stability in aqueous medium (in words) ([2]; aqueous medium): far too unstable in aqueous medium for antibacterial testing
- antibacterial efficacy (in words) [14]: virtually ineffective as an antibiotic

Compound: CC(C)C1=C(C(=O)O)N2C(=O)C(C)(C)C2O1 (stereo not shown) [Compound IIIb]
- half-life [1]: 2 h

Compound: CC(C)(C)C1=C(C(=O)O)N2C(=O)C[C@H]2O1 [2-tert-butyl-1-oxapen-2-em-3-carboxylic acid]
- zone of inhibition at 200 µg/disc ([9]; Staphylococcus aureus, DSM1104, 200 μg applied, read-out: inhibition halo diameter): 45 mm
- zone of inhibition at 200 µg/disc ([10]; DSM1103, 200 μg applied, read-out: inhibition halo diameter): 41 mm
- zone of inhibition at 200 µg/disc ([11]; Staphylococcus aureus, 012484/77, 200 μg applied, read-out: inhibition halo diameter): 47 mm

Compound: CCC1=C(C(=O)O)N2C(=O)C(C)(C)C2O1 (stereo not shown) [Compound IIIc]
- half-life [1]: 1.17 h

Compound: CC1=C(C(=O)O)N2C(=O)CC2O1 (stereo not shown) [IIIe]
- inhibition halo (in words) ([9]; 250 μg applied): a few mm
- antibacterial efficacy (in words) [15]: virtually ineffective antibacterially
- Hydrolysis half life (in words) [1]: a few minutes

Compound: CC(C)(C)C1=C(C(=O)O)N2C(=O)C(CO)C2O1 (stereo not shown) [3-tert-butyl-6-hydroxymethyl-7-oxo-4-oxa-1-azabicyclo[3.2.0]hept-2-ene-2-carboxylic acid]
- zone of inhibition at 10 µg ([8]; Escherichia coli, read-out: inhibition halo diameter): 29 mm
- zone of inhibition at 10 µg/disc ([9]; Staphylococcus aureus, DSM1104, 10 μg applied, read-out: inhibition halo diameter): 30 mm
- zone of inhibition at 10 µg/disc ([10]; DSM1103, 10 μg applied, read-out: inhibition halo diameter): 30 mm
- zone of inhibition at 10 µg/disc ([11]; Staphylococcus aureus, 012484/77, 10 μg applied, read-out: inhibition halo diameter): 32 mm
